Assay results reported in patent US7902182B2, “HIV integrase inhibitors” (priority 2005, dated 2011).

The compounds below were run against T1, HIV-integrase (Human immunodeficiency virus type 1 group M subtype B, UniProt P12497) (assay: HIV-Integrase Inhibition Activity (SPA bead strand transfer assay)). Details: recombinant integrase, biotin labeled substrate DNA on SPA beads, P33 labeled target DNA; read-out: Activity (IC50 against HIV-integrase).
T1 construct: Recombinant integrase (0.26 ng) was incubated with the beads
Assay type: biochemical
Procedure: HIV-Integrase InhibitionActivity. To evaluate in-vitro activity against HIV-integrase, 5 pmole of biotin labeled substrate DNA was bound to 100 μg of Streptavidin coated PVT SPA beads (Amersham Pharmacia Biotech). Recombinant integrase (0.26 ng) was incubated with the beads for 90 min at 37° C. Unbound enzyme was removed by washing the complex followed by addition of inhibitors and 0.1 fmol of P33 labeled target DNA. The reaction was stopped by adding EDTA to a final concentration of 10 mM. Samples were counted in TopCountNXT (Packard) and the CPM was used as a measure of integration. The reaction condition was as described in A. Engelman and R. Craigie, J. Virol. 69, 5908-5911 (1995). The sequences of substrate and target DNA were described in Nucleic Acid Research 22, 1121-1122 (1994).
Activity equal to A refers to a compound having IC50=0.002 to 0.10 μM while B and C denote compounds having IC50=0.1 to 1.0 μM and IC50≧1.0 μM respectively.

**Q.** With `O=C(NCc1ccc(F)cc1S(=O)(=O)N1CCNCC1)c1nc2n(c(=O)c1O)CCOC21CCOCC1` [Example 1] as the compound, how does the IC50 read?
**A.** 2 to 100 nM

**Q.** Which IC50 does the source give for `CN1CCN(S(=O)(=O)c2cc(F)ccc2CNC(=O)c2nc3n(c(=O)c2O)CCOC32CCOCC2)CC1` [Example 2] here?
**A.** 2 to 100 nM

**Q.** With `COC(=O)N1CCN(S(=O)(=O)c2cc(F)ccc2CNC(=O)c2nc3n(c(=O)c2O)CCOC32CCOCC2)CC1` [Example 3] as the compound, how does the IC50 read?
**A.** 2 to 100 nM

**Q.** `CCN1CCN(S(=O)(=O)c2cc(F)ccc2CNC(=O)c2nc3n(c(=O)c2O)CCOC32CCOCC2)CC1` [Example 5] was tested. Which IC50 did it give?
**A.** 2 to 100 nM

**Q.** How did the IC50 turn out when `CN(C)C(=O)N1CCN(S(=O)(=O)c2cc(F)ccc2CNC(=O)c2nc3n(c(=O)c2O)CCOC32CCOCC2)CC1` [Example 7] was run?
**A.** 2 to 100 nM

**Q.** `CN(C)S(=O)(=O)N1CCN(S(=O)(=O)c2cc(F)ccc2CNC(=O)c2nc3n(c(=O)c2O)CCOC32CCOCC2)CC1` [Example 8] was tested. Which IC50 did it give?
**A.** 2 to 100 nM

**Q.** Which IC50 does the source give for `O=C(NCc1ccc(F)cc1S(=O)(=O)N1CCN(C(=O)N2CCOCC2)CC1)c1nc2n(c(=O)c1O)CCOC21CCOCC1` [Example 9] here?
**A.** 2 to 100 nM

**Q.** How did the IC50 turn out when `CC(=O)N1CCN(S(=O)(=O)c2cc(F)ccc2CNC(=O)c2nc3n(c(=O)c2O)CCOC32CCOCC2)CC1` [Example 10] was run?
**A.** 2 to 100 nM

**Q.** `O=C(NCc1ccc(F)cc1S(=O)(=O)N1CCOCC1)c1nc2n(c(=O)c1O)CCOC21CCOCC1` [Example 11] was tested. Which IC50 did it give?
**A.** 2 to 100 nM

**Q.** `O=C(NCc1ccc(F)cc1S(=O)(=O)N1CCOCC1)c1nc2n(c(=O)c1O)CCOC21CCCC1` [Example 12] was tested. Which IC50 did it give?
**A.** 2 to 100 nM

**Q.** How did the IC50 turn out when `O=C(NCc1ccc(F)cc1S(=O)(=O)N1CCOCC1)c1nc2n(c(=O)c1O)CCCC21CCCC1` [Example 13] was run?
**A.** 2 to 100 nM

**Q.** `CC1(C)OCCn2c1nc(C(=O)NCc1ccc(F)cc1S(=O)(=O)N1CCNCC1)c(O)c2=O` [Example 14] was tested. Which IC50 did it give?
**A.** 2 to 100 nM

**Q.** For `CN1CCN(S(=O)(=O)c2cc(F)ccc2CNC(=O)c2nc3n(c(=O)c2O)CCOC3(C)C)CC1` [Example 15], which IC50 is on record?
**A.** 2 to 100 nM

**Q.** How did the IC50 turn out when `CC1(C)OCCn2c1nc(C(=O)NCc1ccc(F)cc1S(=O)(=O)N1CCN(S(C)(=O)=O)CC1)c(O)c2=O` [Example 16] was run?
**A.** 2 to 100 nM

**Q.** With `CC1(C)OCCn2c1nc(C(=O)NCc1ccc(F)cc1S(=O)(=O)N1CCN(C(=O)N3CCOCC3)CC1)c(O)c2=O` [Example 17] as the compound, how does the IC50 read?
**A.** 2 to 100 nM

**Q.** `COC(=O)N1CCN(S(=O)(=O)c2cc(F)ccc2CNC(=O)c2nc3n(c(=O)c2O)CCOC3(C)C)CC1` [Example 18] was tested. Which IC50 did it give?
**A.** 2 to 100 nM

**Q.** With `CN(C)C(=O)N1CCN(S(=O)(=O)c2cc(F)ccc2CNC(=O)c2nc3n(c(=O)c2O)CCOC3(C)C)CC1` [Example 19] as the compound, how does the IC50 read?
**A.** 2 to 100 nM

**Q.** How did the IC50 turn out when `CC(=O)N1CCN(S(=O)(=O)c2cc(F)ccc2CNC(=O)c2nc3n(c(=O)c2O)CCOC3(C)C)CC1` [Example 20] was run?
**A.** 2 to 100 nM

**Q.** With `CN(C)S(=O)(=O)N1CCN(S(=O)(=O)c2cc(F)ccc2CNC(=O)c2nc3n(c(=O)c2O)CCOC3(C)C)CC1` [Example 21] as the compound, how does the IC50 read?
**A.** 2 to 100 nM

**Q.** With `O=C(NCc1ccc(F)cc1S(=O)(=O)N1CCNCC1)c1nc2n(c(=O)c1O)CCOC21CCCC1` [Example 22] as the compound, how does the IC50 read?
**A.** 2 to 100 nM

**Q.** `CN1CCN(S(=O)(=O)c2cc(F)ccc2CNC(=O)c2nc3n(c(=O)c2O)CCOC32CCCC2)CC1` [Example 23] was tested. Which IC50 did it give?
**A.** 2 to 100 nM

**Q.** `CN1CCN(S(=O)(=O)c2cc(F)ccc2CNC(=O)c2nc3n(c(=O)c2O)CCOC32CCC2)CC1` [Example 24] was tested. Which IC50 did it give?
**A.** 2 to 100 nM

**Q.** With `CC1(C)OCCn2c1nc(C(=O)NCc1ccc(F)cc1S(=O)(=O)N1CCC(O)CC1)c(O)c2=O` [Example 25] as the compound, how does the IC50 read?
**A.** 2 to 100 nM

**Q.** `CC1(C)OCCn2c1nc(C(=O)NCc1ccc(F)cc1S(=O)(=O)N1CCC1)c(O)c2=O` [Example 26] was tested. Which IC50 did it give?
**A.** 2 to 100 nM

**Q.** `CC1(C)OCCn2c1nc(C(=O)NCc1ccc(F)cc1S(=O)(=O)N1CCOCC1)c(O)c2=O` [Example 27] was tested. Which IC50 did it give?
**A.** 2 to 100 nM

**Q.** Which IC50 does the source give for `CC1(C)OCCn2c1nc(C(=O)NCc1ccc(F)cc1S(=O)(=O)N1CCCCCC1)c(O)c2=O` [Example 28] here?
**A.** 2 to 100 nM

**Q.** Which IC50 does the source give for `CC1(C)OCCn2c1nc(C(=O)NCc1ccc(F)cc1S(=O)(=O)N1CCC(O)C1)c(O)c2=O` (stereo not shown) [Example 29] here?
**A.** 2 to 100 nM

**Q.** For `CC1(C)OCCn2c1nc(C(=O)NCc1ccc(F)cc1S(=O)(=O)N1CCCCC1)c(O)c2=O` [Example 30], which IC50 is on record?
**A.** 2 to 100 nM

**Q.** With `CC1(C)OCCn2c1nc(C(=O)NCc1ccc(F)cc1S(=O)(=O)N1CCC3(CC1)OCCO3)c(O)c2=O` [Example 31] as the compound, how does the IC50 read?
**A.** 2 to 100 nM

**Q.** With `CC1(C)OCCn2c1nc(C(=O)NCc1ccc(F)cc1S(=O)(=O)N1CCC3(CCNC3=O)CC1)c(O)c2=O` [Example 32] as the compound, how does the IC50 read?
**A.** 2 to 100 nM

**Q.** With `CC1(C)OCCn2c1nc(C(=O)NCc1ccc(F)cc1S(=O)(=O)N1CCCC1)c(O)c2=O` [Example 33] as the compound, how does the IC50 read?
**A.** 2 to 100 nM

**Q.** `CC(=O)N(C)C1CCN(S(=O)(=O)c2cc(F)ccc2CNC(=O)c2nc3n(c(=O)c2O)CCOC3(C)C)C1` (stereo not shown) [Example 34] was tested. Which IC50 did it give?
**A.** 2 to 100 nM

**Q.** How did the IC50 turn out when `CC1CN(S(=O)(=O)c2cc(F)ccc2CNC(=O)c2nc3n(c(=O)c2O)CCOC3(C)C)CC(C)N1` (stereo not shown) [Example 35] was run?
**A.** 2 to 100 nM

**Q.** Which IC50 does the source give for `CC1CN(S(=O)(=O)c2cc(F)ccc2CNC(=O)c2nc3n(c(=O)c2O)CCOC3(C)C)CC(C)N1C` (stereo not shown) [Example 36] here?
**A.** 2 to 100 nM

**Q.** `C[C@@H]1CN(S(=O)(=O)c2cc(F)ccc2CNC(=O)c2nc3n(c(=O)c2O)CCOC3(C)C)CCN1C(=O)OC(C)(C)C` [Example 37] was tested. Which IC50 did it give?
**A.** 2 to 100 nM

**Q.** How did the IC50 turn out when `CS[C@@H]1COC[C@H]1N1CCN(S(=O)(=O)c2cc(F)ccc2CNC(=O)c2nc3n(c(=O)c2O)CCOC3(C)C)CC1` [Example 38] was run?
**A.** 2 to 100 nM

**Q.** Which IC50 does the source give for `CC1(C)OCCn2c1nc(C(=O)NCc1ccc(F)cc1S(=O)(=O)N1CCOC(CN3CCCC3)C1)c(O)c2=O` (stereo not shown) [Example 39] here?
**A.** 2 to 100 nM

**Q.** For `CN(C)[C@@H]1COC[C@H]1N1CCN(S(=O)(=O)c2cc(F)ccc2CNC(=O)c2nc3n(c(=O)c2O)CCOC3(C)C)CC1` [Example 40], which IC50 is on record?
**A.** 2 to 100 nM

**Q.** Which IC50 does the source give for `C[C@@H]1CN(S(=O)(=O)c2cc(F)ccc2CNC(=O)c2nc3n(c(=O)c2O)CCOC3(C)C)CCN1` [Example 41] here?
**A.** 2 to 100 nM

**Q.** How did the IC50 turn out when `C[C@@H]1CN(S(=O)(=O)c2cc(F)ccc2CNC(=O)c2nc3n(c(=O)c2O)CCOC3(C)C)CCN1C` [Example 42] was run?
**A.** 2 to 100 nM
